In the supplement of paper PMC6965134:
± gives the standard deviation of the averaged measurements. One block for each molecule: values may come before it.

Test: TIMS collisional cross section (CCS, N2) of the lipid ion; higher = larger ion cross section
Settings: ionization mode: negative, one isomer drawn
Procedure: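 Lipid extracts of human plasma (NIST SRM 1950), mouse liver or HeLa cells were separated by nanoflow C18 LC (30 min gradient) and analysed by TIMS-PASEF on a timsTOF Pro. Ion mobility was calibrated with the Agilent tuning mix (negative mode ions) and converted to collisional cross sections (Mason–Schamp, N2).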
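Also: lipids from MTBE extraction, five replicate injections per sample, 100 ms TIMS ramp spanning 0.6–1.95 Vs/cm², lipid identity assigned from PASEF MS/MS spectra.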

TIMS collisional cross section (sample type: Human plasma, ion (formula + adduct): [C22H45O9P-H] 1-): 216.9 Å²
SMILES: CCCCCCCCCCCCCCCC(=O)OC[C@@H](O)COP(=O)(O)OC[C@@H](O)CO [LPG 16:0_0:0]

TIMS collisional cross section (sample type: Human plasma, ion (formula + adduct): [C24H49O9P-H] 1-): 224.9 Å²
SMILES: CCCCCCCCCCCCCCCCCC(=O)OC[C@@H](O)COP(=O)(O)OC[C@@H](O)CO [LPG 18:0_0:0]

TIMS collisional cross section (sample type: Mouse Liver, ion (formula + adduct): [C25H49O12P-H] 1-): 232.6 Å²
SMILES: CCCCCCCCCCCCCCCC(=O)OC[C@@H](O)COP(=O)(O)OC1C(O)C(O)C(O)[C@@H](O)C1O (stereo partly specified) [LPI 16:0]

TIMS collisional cross section (sample type: Human plasma, ion (formula + adduct): [C25H47O12P-H] 1-): 230.2 Å²
SMILES: CCCCCC/C=C\CCCCCCCC(=O)OC[C@@H](O)COP(=O)(O)OC1[C@H](O)[C@H](O)C(O)[C@H](O)[C@H]1O (stereo partly specified) [LPI 16:1_0:0]

TIMS collisional cross section (sample type: Human plasma, ion (formula + adduct): [C27H53O12P-H] 1-): 239.4 Å²
SMILES: CCCCCCCCCCCCCCCCCC(=O)OC[C@@H](O)COP(=O)(O)OC1C(O)C(O)C(O)[C@@H](O)C1O (stereo partly specified) [LPI 18:0_0:0]

TIMS collisional cross section (sample type: Human plasma, ion (formula + adduct): [C27H51O12P-H] 1-): 238.3 Å²
SMILES: CCCCCCCC/C=C\CCCCCCCC(=O)OC[C@@H](O)COP(=O)(O)OC1[C@H](O)[C@H](O)C(O)[C@H](O)[C@H]1O (stereo partly specified) [LPI 18:1_0:0]

TIMS collisional cross section (sample type: Human plasma, ion (formula + adduct): [C29H51O12P-H] 1-): 240.4 Å²
SMILES: CCCCC/C=C\C/C=C\C/C=C\CCCCCCC(=O)OC[C@@H](O)COP(=O)(O)OC1[C@H](O)[C@H](O)C(O)[C@H](O)[C@H]1O (stereo partly specified) [LPI 20:3_0:0]

TIMS collisional cross section (sample type: Human plasma, ion (formula + adduct): [C29H49O12P-H] 1-): 239.9 Å²
TIMS collisional cross section (sample type: Mouse Liver, ion (formula + adduct): [C29H49O12P-H] 1-): 241 Å²
SMILES: CCCCC/C=C\C/C=C\C/C=C\C/C=C\CCCC(=O)OC[C@@H](O)COP(=O)(O)OC1C(O)C(O)C(O)[C@@H](O)C1O (stereo partly specified) [LPI 20:4_0:0]

Second part, the molecule before the results:

SMILES: CCCCCCCCCCCCCCCCCC/C=C\OC[C@@H](O)COP(=O)(O)OCCN [LPE O- 20:0_0:0]
TIMS collisional cross section (sample type: Human plasma, ion (formula + adduct): [C25H52NO6P-H] 1-): 223.9 Å²
TIMS collisional cross section (sample type: Mouse Liver, ion (formula + adduct): [C25H52NO6P-H] 1-): 222.7 Å²

SMILES: CCCCCCCC/C=C\CCCCCCCC(=O)OC[C@@H](O)COP(=O)(O)OC[C@@H](O)CO [LPG 18:1_0:0]
TIMS collisional cross section (sample type: Mouse Liver, ion (formula + adduct): [C24H47O9P-H] 1-): 221.1 Å²

SMILES: CC/C=C\C/C=C\C/C=C\C/C=C\CCCCC(=O)OC[C@@H](O)COP(=O)(O)OC1[C@H](O)[C@H](O)C(O)[C@H](O)[C@H]1O (stereo partly specified) [LPI 18:4_0:0]
TIMS collisional cross section (sample type: Mouse Liver, ion (formula + adduct): [C27H45O12P+AcO] 1-): 244.9 Å²

SMILES: CC/C=C\C/C=C\C/C=C\C/C=C\C/C=C\C/C=C\CCC(=O)OC[C@@H](O)COP(=O)(O)OC1[C@H](O)[C@H](O)C(O)[C@H](O)[C@H]1O (stereo partly specified) [LPI 22:6_0:0]
TIMS collisional cross section (sample type: Human plasma, ion (formula + adduct): [C31H49O12P-H] 1-): 243.8 Å²

SMILES: CCCCCCCCCCCCCCCCCC(=O)OC[C@@H](O)COP(=O)(O)OC[C@H](N)C(=O)O [LPS 18:0_0:0]
TIMS collisional cross section (sample type: Mouse Liver, ion (formula + adduct): [C24H48NO9P-H] 1-): 227.7 Å²

SMILES: CC/C=C\C/C=C\C/C=C\C/C=C\C/C=C\C/C=C\CCC(=O)OC[C@@H](O)COP(=O)(O)OC[C@H](N)C(=O)O [LPS 22:6]
TIMS collisional cross section (sample type: Mouse Liver, ion (formula + adduct): [C28H44NO9P-H] 1-): 230.2 Å²

SMILES: CCCCC/C=C\C[C@H](O)/C=C/C=C\C/C=C\CCCC(=O)O[C@H](COC(=O)CCCCCCCCCCCCCCC)COP(=O)([O-])OCC[N+](C)(C)C [Oxidized PC 16:0@_20:4]
TIMS collisional cross section (sample type: Mouse Liver, ion (formula + adduct): [C44H80NO9P-CH3] 1-): 281.3 Å²

SMILES: CCCCCCCCCCCCCCCC(=O)OC[C@H](COP(=O)([O-])OCC[N+](C)(C)C)OC(=O)CCCC(=O)O [Oxidized PC 16:0_5:0]
TIMS collisional cross section (sample type: Mouse Liver, ion (formula + adduct): [C29H56NO10P-CH3] 1-): 240.1 Å²

SMILES: CCCCCCCCCCCCCCCC(=O)OC[C@H](COP(=O)([O-])OCC[N+](C)(C)C)OC(=O)CCCC=O [Oxidized PC 16:0_5:0]
TIMS collisional cross section (sample type: Human plasma, ion (formula + adduct): [C29H56NO9P+HCOO] 1-): 255.5 Å²
TIMS collisional cross section (sample type: Mouse Liver, ion (formula + adduct): [C29H56NO9P+AcO] 1-): 258.4 Å²

SMILES: CCCCCCCCCCCCCCCC(=O)OC[C@H](COP(=O)([O-])OCC[N+](C)(C)C)OC(=O)CCCCCCCC(=O)O [Oxidized PC 16:0_9:0@]
TIMS collisional cross section (sample type: Mouse Liver, ion (formula + adduct): [C33H64NO10P-CH3] 1-): 255.5 Å²

SMILES: CCCCCCCCCCCCCCCC(=O)OC[C@H](COP(=O)([O-])OCC[N+](C)(C)C)OC(=O)CCCCCCCC=O [Oxidized PC 16:0_9:0@]
TIMS collisional cross section (sample type: Human plasma, ion (formula + adduct): [C33H64NO9P+HCOO] 1-): 267.18 ± 0.29 Å²
TIMS collisional cross section (sample type: Human plasma, ion (formula + adduct): [C33H64NO9P-CH3] 1-): 253.8 Å²
TIMS collisional cross section (sample type: Mouse Liver, ion (formula + adduct): [C33H64NO9P+HCOO] 1-): 267.1 ± 0.42 Å²

SMILES: CCCCC/C=C\C[C@H](O)/C=C/C=C\C/C=C\CCCC(=O)O[C@H](COC(=O)CCCCCCCCCCCCCCC)COP(=O)([O-])OCC[N+](C)(C)C [Oxidized PC 16:0_20:4]
TIMS collisional cross section (sample type: Human plasma, ion (formula + adduct): [C44H80NO9P+HCOO] 1-): 296.77 ± 1.3 Å²
TIMS collisional cross section (sample type: Mouse Liver, ion (formula + adduct): [C44H80NO9P+HCOO] 1-): 295.67 ± 1.9 Å²
